Data from US10934309B2, “Tricyclic quinone derivative” (Boston Biomedical, Inc., priority 2014, dated 2021).

Legend:
Format in all cases: cell-based, human
HT-29 cells [1] = assay: Proliferation inhibition assay of cancer cells (Test Example 1), HT-29; conditions: HT-29 cells, cultured for 4 days, Cell Titer-Glo, read-out: IC50 (μM) HT, concentration for 50% inhibition of cell proliferation (Bulk IC50 value)
Description: (§1) HCT-116 cells (derived from human colon adenocarcinoma), HT-29 cells (derived from human colon cancer), and FaDu cells (derived from human hypopharynx cancer) were obtained from American Type Culture Collection (ATCC). […] After cells were seeded at 300-600 cells/well onto black μClear-plate 384 well (Greiner bio-one Cat. No. 781091), a test substance was added such that the final concentration of DMSO is 0.1%, and cultured for 4 days. […] A test shown in Test example 1 was carried out for compounds obtained in the Examples.

HCT-116 cells [2] = assay: Proliferation inhibition assay of cancer cells (Test Example 1), HCT-116; conditions: HCT-116 cells, cultured for 4 days, Cell Titer-Glo, read-out: IC50 (μM) HCT, concentration for 50% inhibition of cell proliferation (Bulk IC50 value)
Description: as §1

HCT-116 cells [3] = assay: Inhibition assay of cancer cell sphere-forming ability (Test Example 2), HCT-116; conditions: HCT-116 cells, Ultra-Low Attachment plate, serum-free DMEM/F12 with B27, EGF, bFGF, insulin, 4 days, Cell Titer-Glo, read-out: IC50 (μM) HCT, concentration for 50% inhibition of cell proliferation (Sphere IC50 value)
Description: (§2) HCT-116 cells (derived from human colon adenocarcinoma), HT-29 cells (derived from human colon cancer), FaDu cells (derived from human hypopharynx cancer) were obtained from American Type Culture Collection (ATCC). […] HCT-116 cells, HT-29 cells, and FaDu cells were seeded onto 384 Well Black Clear Bottom Ultra-Low Attachment Microplate (Corning Cat. […] A test substance was added so that the final concentration of DMSO is 0.1%, and then cultured for 4 days. […] A test shown in Test example 2 was carried out for compounds obtained in the Examples.

FaDu cells [4] = assay: Inhibition assay of cancer cell sphere-forming ability (Test Example 2), FaDu; conditions: FaDu cells, Ultra-Low Attachment plate, serum-free DMEM/F12 with B27, EGF, bFGF, insulin, 4 days, Cell Titer-Glo, read-out: IC50 (μM) FaDu, concentration for 50% inhibition of cell proliferation (Sphere IC50 value)
Description: as §2

HT-29 cells [5] = assay: Inhibition assay of cancer cell sphere-forming ability (Test Example 2), HT-29; conditions: HT-29 cells, Ultra-Low Attachment plate, serum-free DMEM/F12 with B27, EGF, bFGF, insulin, 4 days, Cell Titer-Glo, read-out: IC50 (μM) HT, concentration for 50% inhibition of cell proliferation (Sphere IC50 value)
Description: as §2

FaDu cells [6] = assay: Proliferation inhibition assay of cancer cells (Test Example 1), FaDu; conditions: FaDu cells, cultured for 4 days, Cell Titer-Glo, read-out: IC50 (μM) FaDu, concentration for 50% inhibition of cell proliferation (Bulk IC50 value)
Description: as §1

Structure (SMILES) | IC50 (HT-29 cells [1]; Homo sapiens, HT-29, 96 h) [µM] | IC50 (HCT-116 cells [2]; Homo sapiens, HCT-116, 96 h) [µM] | IC50 (HCT-116 cells [3]; Homo sapiens, HCT-116, 96 h) [µM] | IC50 (FaDu cells [4]; Homo sapiens, FaDu, 96 h) [µM] | IC50 (HT-29 cells [5]; Homo sapiens, HT-29, 96 h) [µM] | IC50 (FaDu cells [6]; Homo sapiens, FaDu, 96 h) [µM] | IC50 (HT-29 cells [1]) [µM] | IC50 (HCT-116 cells [2]) [µM] | IC50 (HCT-116 cells [3]) [µM] | IC50 (FaDu cells [4]) [µM] | IC50 (HT-29 cells [5]) [µM] | IC50 (FaDu cells [6]) [µM]
CC(=O)c1cc2c(s1)C(=O)c1ncccc1C2=O [Example 36, 2-acetylthieno[3,2-g]quinoline-4,9-dione] | 0.73 | 0.1 | 0.07 | 0.05 | 0.25 | 0.09 |  |  |  |  |  | 
CC(O)c1cc2c(s1)C(=O)c1ncccc1C2=O (stereo not drawn) [Example 37, 2-(1-hydroxyethyl)thieno[3,2-g]quinoline-4,9-dione] | 0.62 | 0.06 | 0.06 | 0.06 | 0.49 | 0.08 |  |  |  |  |  | 
COC(C)c1cc2c(s1)C(=O)c1ncccc1C2=O (stereo not drawn) [Example 38, 2-(1-methoxyethyl)thieno[3,2-g]quinoline-4,9-dione] | 0.66 | 0.55 | 0.55 | 0.28 | 0.59 | 0.44 |  |  |  |  |  | 
CC1CNCC(C)(C(=O)c2cc3c(s2)C(=O)c2ncccc2C3=O)C1 (stereo not drawn) [Example 39, 2-[(3,5-dimethylpiperidin-5-yl)carbonyl]thieno[3,2-g]quinoline-4,9-dione] | 3.71 | 0.38 | 0.35 | 0.45 | 0.55 | 0.09 |  |  |  |  |  | 
O=C(NCC(F)F)c1cc2c(s1)C(=O)c1ncccc1C2=O [Example 40, N-(2,2-difluoroethyl)-4,9-dioxo-4,9-dihydroxythieno[3,2-g]quinoline-2-carboxyamide] |  |  |  |  |  |  | 0.55 | 0.07 | 0.08 | 0.05 | 0.51 | 0.05
CC(C)(C)OC(=O)NCc1cc2c(s1)C(=O)c1ncccc1C2=O [Example 41, tert-butyl (4,9-dioxo-4,9-dihydrothieno[3,2-g]quinolin-2-yl)methylcarbamate] | 4.52 | 0.7 | 0.83 | 0.46 | 3.82 | 0.78 |  |  |  |  |  | 
CC(=O)c1cc2c(o1)C(=O)c1cccnc1C2=O [Example 42, 2-acetylfuro[2,3-g]quinoline-4,9-dione] | 0.72 | 0.54 | 0.31 | 0.08 | 0.59 | 0.47 |  |  |  |  |  | 
CC(O)c1cc2c(o1)C(=O)c1cccnc1C2=O (stereo not drawn) [Example 43, 2-(1-hydroxyethyl)furo[2,3-g]quinoline-4,9-dione] | 5.62 | 0.62 | 0.51 | 0.33 | 0.6 | 0.66 |  |  |  |  |  | 
CC(=O)c1cc2c(o1)C(=O)c1ccncc1C2=O [Example 44, 2-acetylfuro[2,3-g]isoquinoline-4,9-dione] | 0.51 | 0.06 | 0.06 | 0.04 | 0.08 | 0.03 |  |  |  |  |  | 
CC(O)c1cc2c(o1)C(=O)c1ccncc1C2=O (stereo not drawn) [Example 45, 2-(1-hydroxyethyl)furo[2,3-g]isoquinoline-4,9-dione] | 0.52 | 0.06 | 0.06 | 0.03 | 0.08 | 0.03 |  |  |  |  |  | 
CC(=O)c1oc2c(c1C(=O)N1CCOCC1)C(=O)c1cnccc1C2=O [Example 47, 2-acetyl-3-(morpholin-4-carbonyl)furo[2,3-g]isoquinoline-4,9-dione] | 0.41 | 0.36 | 0.26 | 0.05 | 0.17 | 0.05 |  |  |  |  |  | 
